Measurements taken from ChEMBL document CHEMBL5523701, “Structure-based discovery of small molecule inhibitors of FKBP51-Hsp90 protein-protein interaction” (Eur J Med Chem, 2024).

What was measured:
[1] = target: T1, Peptidyl-prolyl cis-trans isomerase FKBP4 (Homo sapiens, UniProt Q02790); assay: Inhibition of GST-tagged human FKBP52 expressed in Escherichia coli BL21 (DE3) using NH2-EDASRMEEVD-COOH peptide as substrate preincubated for 15 mins followed by substrate addition measured after 15 mins by Alpha Screen assay
T1 sequence (Q02790 whole entry): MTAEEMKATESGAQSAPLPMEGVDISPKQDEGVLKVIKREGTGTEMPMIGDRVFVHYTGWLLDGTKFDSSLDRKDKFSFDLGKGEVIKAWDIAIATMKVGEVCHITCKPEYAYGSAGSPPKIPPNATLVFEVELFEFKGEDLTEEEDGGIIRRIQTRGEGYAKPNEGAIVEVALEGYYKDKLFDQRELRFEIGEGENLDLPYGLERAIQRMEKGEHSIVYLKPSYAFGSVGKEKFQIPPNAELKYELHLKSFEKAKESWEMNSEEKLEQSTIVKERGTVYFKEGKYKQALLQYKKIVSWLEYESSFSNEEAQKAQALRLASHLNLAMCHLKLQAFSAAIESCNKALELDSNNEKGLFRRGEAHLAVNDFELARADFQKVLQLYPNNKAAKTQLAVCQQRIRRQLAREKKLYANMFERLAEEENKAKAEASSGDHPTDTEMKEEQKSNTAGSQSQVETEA

[2] = target: T2, Aryl-hydrocarbon-interacting protein-like 1 (Homo sapiens, UniProt Q9NZN9); assay: Inhibition of GST-tagged human AIPL1 expressed in Escherichia coli BL21 (DE3) using NH2-EDASRMEEVD-COOH peptide as substrate preincubated for 15 mins followed by substrate addition measured after 15 mins by Alpha Screen assay
T2 sequence (Q9NZN9 whole entry): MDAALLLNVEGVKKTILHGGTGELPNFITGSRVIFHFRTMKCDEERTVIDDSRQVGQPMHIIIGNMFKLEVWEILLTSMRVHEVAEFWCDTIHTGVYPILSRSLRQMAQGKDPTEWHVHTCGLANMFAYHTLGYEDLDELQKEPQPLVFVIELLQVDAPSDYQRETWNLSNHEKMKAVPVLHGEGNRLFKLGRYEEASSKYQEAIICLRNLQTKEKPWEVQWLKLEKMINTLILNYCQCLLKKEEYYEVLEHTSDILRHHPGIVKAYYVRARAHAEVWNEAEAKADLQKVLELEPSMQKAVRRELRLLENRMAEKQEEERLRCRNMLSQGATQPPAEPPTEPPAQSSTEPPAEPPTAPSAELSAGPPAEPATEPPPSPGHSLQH

[3] = target: T3, AH receptor-interacting protein (Homo sapiens, UniProt O00170); assay: Inhibition of GST-tagged human AIP expressed in Escherichia coli BL21 (DE3) using NH2-EDASRMEEVD-COOH peptide as substrate preincubated for 15 mins followed by substrate addition measured after 15 mins by Alpha Screen assay
T3 sequence (O00170 whole entry): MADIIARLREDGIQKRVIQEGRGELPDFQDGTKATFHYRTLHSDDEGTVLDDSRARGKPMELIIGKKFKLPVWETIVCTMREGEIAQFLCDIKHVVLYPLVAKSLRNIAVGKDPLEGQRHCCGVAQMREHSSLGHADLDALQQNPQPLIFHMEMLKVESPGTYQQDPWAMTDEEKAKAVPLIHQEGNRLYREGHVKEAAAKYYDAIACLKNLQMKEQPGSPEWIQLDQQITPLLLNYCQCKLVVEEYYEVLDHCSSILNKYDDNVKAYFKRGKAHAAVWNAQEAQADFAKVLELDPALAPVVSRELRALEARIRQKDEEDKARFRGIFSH

[4] = target: Stress-induced-phosphoprotein 1 (Homo sapiens, UniProt P31948); assay: Inhibition of GST-tagged human HOP expressed in Escherichia coli BL21 (DE3) using NH2-EDASRMEEVD-COOH peptide as substrate preincubated for 15 mins followed by substrate addition measured after 15 mins by Alpha Screen assay
Chain of Stress-induced-phosphoprotein 1 (P31948 whole entry): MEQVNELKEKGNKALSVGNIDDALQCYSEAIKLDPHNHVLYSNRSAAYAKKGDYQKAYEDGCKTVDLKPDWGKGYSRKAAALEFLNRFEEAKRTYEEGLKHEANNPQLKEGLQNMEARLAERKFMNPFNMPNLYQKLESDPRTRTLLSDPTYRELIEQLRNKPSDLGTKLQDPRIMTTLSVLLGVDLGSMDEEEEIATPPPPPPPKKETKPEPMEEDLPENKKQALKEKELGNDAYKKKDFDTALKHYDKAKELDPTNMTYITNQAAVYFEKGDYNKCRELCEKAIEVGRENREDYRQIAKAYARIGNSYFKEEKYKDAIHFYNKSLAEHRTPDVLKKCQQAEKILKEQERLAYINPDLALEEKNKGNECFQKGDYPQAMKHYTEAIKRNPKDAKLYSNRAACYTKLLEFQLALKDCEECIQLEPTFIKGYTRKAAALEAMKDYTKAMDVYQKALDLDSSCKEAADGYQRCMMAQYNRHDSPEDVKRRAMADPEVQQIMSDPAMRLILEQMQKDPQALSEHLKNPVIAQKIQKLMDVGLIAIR

[5] = target: Peptidyl-prolyl cis-trans isomerase D (Homo sapiens, UniProt Q08752); assay: Inhibition of GST-tagged human CYP40 expressed in Escherichia coli BL21 (DE3) using NH2-EDASRMEEVD-COOH peptide as substrate preincubated for 15 mins followed by substrate addition measured after 15 mins by Alpha Screen assay
Chain of Peptidyl-prolyl cis-trans isomerase D (Q08752 whole entry): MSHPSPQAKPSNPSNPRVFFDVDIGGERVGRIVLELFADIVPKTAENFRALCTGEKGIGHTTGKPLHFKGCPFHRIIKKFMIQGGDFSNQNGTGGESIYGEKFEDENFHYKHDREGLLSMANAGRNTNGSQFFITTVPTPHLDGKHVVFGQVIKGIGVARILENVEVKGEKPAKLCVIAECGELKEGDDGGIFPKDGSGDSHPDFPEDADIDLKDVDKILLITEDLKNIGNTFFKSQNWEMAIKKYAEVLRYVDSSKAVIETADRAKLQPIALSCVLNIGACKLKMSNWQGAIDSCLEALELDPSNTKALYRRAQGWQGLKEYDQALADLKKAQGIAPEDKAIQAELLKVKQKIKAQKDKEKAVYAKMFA

[6] = Inhibition of GST-tagged FKBP51 N381Y mutant (unknown origin) using NH2-EDASRMEEVD-COOH peptide as substrate preincubated for 15 mins followed by substrate addition measured after 15 mins by Alpha Screen assay; design: species or system Homo sapiens
[7] = target: T4, Peptidyl-prolyl cis-trans isomerase FKBP5 (Homo sapiens, UniProt Q13451); assay: Inhibition of GST-tagged human FKBP51 expressed in Escherichia coli BL21 (DE3) using NH2-EDASRMEEVD-COOH peptide as substrate preincubated for 15 mins followed by substrate addition measured after 15 mins by Alpha Screen assay
T4 sequence (Q13451 whole entry): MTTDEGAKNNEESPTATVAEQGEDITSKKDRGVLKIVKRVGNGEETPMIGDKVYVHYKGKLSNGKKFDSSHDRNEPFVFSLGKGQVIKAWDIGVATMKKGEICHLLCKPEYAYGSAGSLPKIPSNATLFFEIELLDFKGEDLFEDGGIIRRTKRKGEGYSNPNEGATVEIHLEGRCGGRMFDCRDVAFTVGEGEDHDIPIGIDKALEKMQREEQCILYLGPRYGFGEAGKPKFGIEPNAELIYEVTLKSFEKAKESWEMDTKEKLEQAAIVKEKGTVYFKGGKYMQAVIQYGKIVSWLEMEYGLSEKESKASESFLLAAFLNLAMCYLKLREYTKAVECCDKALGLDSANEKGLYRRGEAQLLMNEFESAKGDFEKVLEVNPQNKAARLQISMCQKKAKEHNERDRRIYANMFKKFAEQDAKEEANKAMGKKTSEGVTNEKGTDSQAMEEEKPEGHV

[8] = target: T1, Peptidyl-prolyl cis-trans isomerase FKBP4; assay: Binding affinity to GST-tagged human FKBP52 expressed in Escherichia coli BL21 (DE3) immobilized in CM7 sensor chip assessed as equilibrium dissociation constant by SPR analysis
HEK293 = assay: Induction of cell proliferation in HEK293 cells at 10 uM measured for 1 to 4 hrs by MTT assay relative to control; format: functional, Homo sapiens; conditions: time 1-4 hrs
[9] = Solubility of compound in cell culture media upto 30 uM; format: physicochemical
[10] = target: T4, Peptidyl-prolyl cis-trans isomerase FKBP5; assay: Binding affinity to GST-tagged human FKBP51 expressed in Escherichia coli BL21 (DE3) immobilized in CM7 sensor chip assessed as equilibrium dissociation constant by SPR analysis

Row | IC50 [1] [µM] | IC50 [2] [µM] | IC50 [3] [µM] | IC50 [4] [µM] | IC50 [5] [µM] | IC50 [6] [µM] | IC50 [7] [µM] | Kd [8] [µM] | solubility [9] | Kd [10] [µM] | SMILES | Activity (HEK293) [%]
1 | 5 | 2 | 7 | 10 | 1.5 | – | – | – | – | – | Cc1sc(NC(=O)CCCC(=O)Nc2sc(C)c(C)c2C(N)=O)c(C(N)=O)c1C | –
2 | 3 | – | 6 | 5 | – | 0.5 | 1.5 | 745 | Soluble | 48.4 | COC(=O)c1c(NC(=O)CSc2nnc(-c3ccco3)c(-c3ccco3)n2)sc(C)c1C | 10
